Consider eleven compounds from article PMC6272846, “Synthesis and p38 Inhibitory Activity of Some Novel Substituted N,N′-Diarylurea Derivatives” (Molecules, 2016).

Molecules are shown by their SMILES. Where only a bound is given, the exact number is not on record here.

Assay [1] has as its target MAPK14/p38α (Homo sapiens, UniProt Q16539). The assay can be described thus: p38α MAP kinase activity, phosphorylation of ATF-2 (TR-FRET). The following applies: enzyme. Format: biochemical. How it is done: Kinase reaction buffer was composed of 50 mM HEPES (pH 7.5), 0.01% BRIJ-35, 10 mM MgCl2 and 1 mM EGTA. Prepared MAPK14/p38α in 1× kinase buffer with concentration at 500 ng/mL. A 2-fold serial dilution was performed using 1× kinase buffer from 500 ng/mL using 16 dose points. […] The reaction was started by adding 5 μL of the GFP-ATF2(19–96) substrate and ATP solution into each well of the assay plate. The final starting concentration of MAPK14/p38α was 250ng/ml, and the final GFP-ATF2 and ATP concentrations were 0.4 μM and 90 μM, respectively. The assay plate was sealed and incubated for 1 hour at room temperature (RT). Antibody solution (1 mL) was prepared from 20 mM EDTA and 4 nM Tb-antipATF2 (pThr71) antibody in TR-FRET dilution buffer. Antibody solution (10 μL) was added into each well of the assay plate and mixed gently. The final EDTA concentration was 10 mM, and the final Tb-antipATF2 (pThr71) concentration was 2 nM. The assay plate was sealed and incubated for 30 minutes at RT.
Inhibitor in 0.5% DMSO (2 μL/well) at 5-fold the final assay concentration was added into a 384-well assay plate. […] MAPK14/p38α (4 μL/well) was added to each well of the 384-well assay plate and incubated for 15 min at RT. To start the reaction, substrate GFP-ATF2 (19–96) and ATP (4 μL/well) were added into kinase reaction buffer. […] The resulting TR-FRET emission ratio was plotted against the concentration of inhibitor, and the data fitted to a sigmoidal dose-response curve with a variable slope. The IC50 concentration was calculated from the curve.
For orientation: In TR-FRET formats the signal depends on donor and acceptor labels being close together.

The test system of assay [2] is TNF-α release from THP-1 cells. The assay can be described thus: Inhibition of TNF-α release from THP-1 cells after LPS stimulation. Format: cell-based. The following applies: Homo sapiens; LPS-stimulated THP-1 cells. The procedure: LPS stock was prepared at 1 mg/mL by adding 1 mL sterile endotoxin-free water to 1 mg LPS powder. The LPS stock was aliquoted and stored at −20 °C. […] An amount of 100 K THP-1 cells were seeded into a 96-well cell culture plate in 100 μL of test medium. […] A total of 10 μL compound was added to the plate with cells, and the cells were incubated for 1 hour at 37 °C. An amount of 10 μL/well LPS was added to stimulate the cells. The final LPS concentration was 300 ng/mL, and the DMSO concentration was 0.3%. […]. The plate was incubated for 5 hours at 37 °C. […] Three replicates were used for each dose. At the 5th hour, the TNF-α in the supernatants and standard curve samples was determined using the HTRF kit. […] Amounts of 5 μL Anti-TNF-α-Cryptate (Invitrogen, Carlsbad, CA, USA) and 5 μL Anti-TNFα-XL665 (Invitrogen) were added, and the plate was incubated at RT for 15 h. The plate was read on an Envision instrument (PerkinElmer) and the IC50 was calculated.

For assay [3], the system named is MAPKAPK2. The assay can be described thus: Inhibition of MAPKAPK2 in GFP-MAPKAPk2_BHK cell model (nuclear translocation). Format: cell-based. Conditions: GFP-MAPKAPk2_BHK cells. How it is done: In order to study p38α inhibition in a cell system, we investigated the ability of all compounds to inhibit the phosphorylation of mitogen-activated protein-kinase-activated protein kinase 2 (MAPKAPK2). Each compound was prepared at […] concentrations (1, 3, 10 and 30 nM, 0.1 and 0.3 μM), and the percentages of inhibition were calculated from the numbers of cells after treatment with the different compounds.
GFP-MAPKAPk2_BHK cells were cultured in 96-well plates (2.0 × 10^4/100 μL/well) containing 10% heat-inactivated foetal bovine serum (FBS) and 1 mg/mL G418 at 37 °C in humidified air containing 5% CO2 for 18–24 h. The cells were washed with nutrient solution (100 μL/well) and changed to the compound liquid (100 μL/well). Experiments were set up with the control, and the compound was repeated at each concentration in three wells. The cells were cultured in 96-well plates at 37 °C in humidified air containing 5% CO2 for 90 min. The cells were washed with the dye solution (20 μL/well), and the dyed cells were held for 1 hour at room temperature in the dye liquid. Analysis of nuclear translocation and calculation of the ability of the compounds to inhibit nuclear translocation was performed using the IN Cell Analyzer 1000 Nuclear Trafficking Analysis Module System (GE, Madison, WI, USA). The cultured cells were treated with the obtained compounds in […] concentration grads (1, 3, 10 and 30 nM, 0.1 and 0.3 μM). The inhibitory percentage can be calculated using the amounts of cells after the disposition of the different compounds.

Chain of MAPK14/p38α (Q16539 whole entry): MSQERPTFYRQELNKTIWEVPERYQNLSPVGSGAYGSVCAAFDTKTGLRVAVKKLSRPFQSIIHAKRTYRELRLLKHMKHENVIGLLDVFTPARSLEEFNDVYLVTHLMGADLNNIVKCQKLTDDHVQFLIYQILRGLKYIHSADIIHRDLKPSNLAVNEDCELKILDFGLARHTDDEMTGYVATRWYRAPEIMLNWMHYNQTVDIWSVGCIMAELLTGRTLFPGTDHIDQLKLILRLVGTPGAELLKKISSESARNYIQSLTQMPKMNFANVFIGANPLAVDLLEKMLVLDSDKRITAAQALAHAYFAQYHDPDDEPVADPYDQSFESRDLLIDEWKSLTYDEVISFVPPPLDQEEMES

As to `Cc1ccc(-n2nc(C(C)(C)C)cc2NC(=O)NCc2ccccc2Oc2ccc3c(c2)CCCC3O)cc1` (centres unmarked) [27a, 1-(3-(tert-Butyl)-1-(p-tolyl)-1H-pyrazol-5-yl)-3-(2-((5-hydroxy-5,6,7,8-tetrahydronaphthalen-2-yl)oxy)-benzyl)urea], the IC50 was 0.00359 ± 0.00021 µM in assay [1] (GFP-ATF2 substrate, 90 μM ATP); 15.3 ± 2.56 nM in assay [2]; 0.13341 ± 7e-05 µM in assay [3].

With `CC(C)(C)c1cc(NC(=O)NCc2ccccc2Oc2ccc3c(c2)CCCC3O)n(-c2ccc([N+](=O)[O-])cc2)n1` (centres unmarked) [27b, 1-(3-(tert-Butyl)-1-(4-nitrophenyl)-1H-pyrazol-5-yl)-3-(2-((5-hydroxy-5,6,7,8-tetrahydronaphthalen-2-yl)-oxy)benzyl)urea], the IC50 worked out at 0.00387 ± 0.00043 µM in assay [1] (GFP-ATF2 substrate, 90 μM ATP); 27.5 ± 1.21 nM in assay [2]; 0.0985 ± 0.00589 µM in assay [3].

In the case of `CC(C)(C)c1cc(NC(=O)NCc2ccccc2Oc2ccc3[nH]ncc3c2)n(-c2ccc(F)cc2)n1` [25g, 1-(2-((1H-Indazol-5-yl)oxy)benzyl)-3-(3-(tert-butyl)-1-(4-fluorophenyl)-1H-pyrazol-5-yl)urea], the IC50 amounted to 0.00066 ± 9e-05 µM in assay [1] (GFP-ATF2 substrate, 90 μM ATP); 2 ± 0.01 nM in assay [2]; 0.00316 ± 0.00131 µM in assay [3].

For `Cc1ccc(-n2nc(C(C)(C)C)cc2NC(=O)Nc2ccccc2OCCN2CCOCC2)cc1` [28a, 1-(3-(tert-Butyl)-1-(p-tolyl)-1H-pyrazol-5-yl)-3-(2-(2-morpholinoethoxy)phenyl)urea], the IC50 in assay [1] (bound given in µM) and in assay [3] (bound given in µM) was greater than 10 µM throughout.

Take `CC(C)(C)c1cc(NC(=O)NCc2ccccc2Oc2ccc3[nH]ncc3c2)n(-c2ccc(S(N)(=O)=O)cc2)n1` [25k, 4-(5-(3-(2-((1H-Indazol-5-yl)oxy)benzyl)ureido)-3-(tert-butyl)-1H-pyrazol-1-yl)benzenesulfonamide]: the IC50 in assay [2] came to 8.69 ± 0.01 nM; in assay [3], 0.039 ± 0.00576 µM.

Turning to `Cc1ccc(-n2nc(C(C)(C)C)cc2NC(=O)NCc2cc(F)ccc2Oc2ccc3c(c2)CCCC3O)cc1` (centres unmarked) [27e, 1-(3-(tert-Butyl)-1-(p-tolyl)-1H-pyrazol-5-yl)-3-(5-fluoro-2-((5-hydroxy-5,6,7,8-tetrahydronaphthalen-2-yl)-oxy)benzyl)urea], the IC50 in assay [1] (GFP-ATF2 substrate, 90 μM ATP) stood at 0.005 ± 0.00053 µM; in assay [2], 182 ± 4.35 nM.

In the case of `CC(C)(C)c1cc(NC(=O)Nc2ccccc2Oc2ccc3[nH]ncc3c2)n(-c2ccccc2)n1` [29b, 1-(2-((1H-Indazol-5-yl)oxy)phenyl)-3-(3-(tert-butyl)-1-phenyl-1H-pyrazol-5-yl)urea], the IC50 in assay [1] (bound given in µM) and in assay [3] (bound given in µM) was greater than 10 µM each time.

Turning to `Cc1ccc(-n2nc(C(C)(C)C)cc2NC(=O)NCc2cc(F)ccc2Oc2ccc3[nH]ncc3c2)cc1` [25j, 1-(2-((1H-Indazol-5-yl)oxy)-5-fluorobenzyl)-3-(3-(tert-butyl)-1-(p-tolyl)-1H-pyrazol-5-yl)urea], the IC50 in assay [1] (GFP-ATF2 substrate, 90 μM ATP) was 0.00153 ± 7e-05 µM; in assay [3] it was 0.00361 ± 0.00243 µM.

For `CC(C)(C)c1cc(NC(=O)NCc2ccccc2Oc2ccc3[nH]ncc3c2)n(-c2ccc(Cl)cc2)n1` [25e, 1-(2-((1H-Indazol-5-yl)oxy)benzyl)-3-(3-(tert-butyl)-1-(4-chlorophenyl)-1H-pyrazol-5-yl)urea], the IC50 in assay [2] is 3.48 ± 0.46 nM; in assay [3], 0.00992 ± 0.00065 µM.

For the compound `CC(C)(C)c1cc(NC(=O)NCc2ccccc2Oc2ccc3[nH]ncc3c2)n(-c2ccc(Br)cc2)n1` [25f, 1-(2-((1H-Indazol-5-yl)oxy)benzyl)-3-(1-(4-bromophenyl)-3-(tert-butyl)-1H-pyrazol-5-yl)urea], the IC50 in assay [1] (GFP-ATF2 substrate, 90 μM ATP) turned out to be 0.00073 ± 1e-05 µM; in assay [2], 1.82 ± 0.15 nM; in assay [3] it was 0.0074 ± 0.00087 µM.

With `CC(C)(C)c1cc(NC(=O)NCc2cc(F)ccc2Oc2ccc3c(c2)CCCC3O)n(-c2ccc([N+](=O)[O-])cc2)n1` (centres unmarked) [27d, 1-(3-(tert-Butyl)-1-(4-nitrophenyl)-1H-pyrazol-5-yl)-3-(5-fluoro-2-((5-hydroxy-5,6,7,8-tetrahydro-naphthalen-2-yl)oxy)benzyl)urea], the IC50 in assay [1] (GFP-ATF2 substrate, 90 μM ATP) is 0.00576 ± 0.00024 µM; in assay [2] it was 130 ± 3.33 nM.

As a reminder, the IC50 is the point on the concentration scale where inhibition reaches its midpoint.
